The NIST ThermoML archive (doi:10.1021/je100693c)
Values joined by “and” are separate entries in the source; they are usually repeats but may differ in a detail not shown here. Equal values may be shown once.

Assays:
[1] = 101 kPa, Liquid, Vibrating tube method
[2] = xn = mol fraction of the nth substance listed; settings: 101 kPa, Liquid, Vibrating tube method
[3] = excess molar enthalpy (molar enthalpy of mixing); xn = mol fraction of the nth substance listed; settings: 101 kPa, Liquid

CCCCn1cc[n+](C)c1.F[B-](F)(F)F [1-butyl-3-methylimidazolium tetrafluoroborate]
[1]
Settings | mass density [kg/m3]
283.15 K | 1213.3
293.15 K | 1205.9
303.15 K | 1198.6
313.15 K | 1191.4
323.15 K | 1184.4
333.15 K | 1177.4

CCCCn1cc[n+](C)c1.F[B-](F)(F)F [1-butyl-3-methylimidazolium tetrafluoroborate] + OCC(F)(F)F
[2], x1 = 1
Settings | mass density [kg/m3]
283.15 K | 1213.3
293.15 K | 1205.9
303.15 K | 1198.6
313.15 K | 1191.4
323.15 K | 1184.4
333.15 K | 1177.4

CCn1cc[n+](C)c1.F[B-](F)(F)F [1-ethyl-3-methylimidazolium tetrafluoroborate]
[1]
Settings | mass density [kg/m3]
293.1 K | 1284.3
303.11 K | 1276.5
313.15 K | 1269.2
323.14 K | 1261.8
333.23 K | 1254.6

CCn1cc[n+](C)c1.F[B-](F)(F)F [1-ethyl-3-methylimidazolium tetrafluoroborate] + OCC(F)(F)F
[2], x1 = 1
Settings | mass density [kg/m3]
293.1 K | 1284.3
303.11 K | 1276.5
313.15 K | 1269.2
323.14 K | 1261.8
333.23 K | 1254.6

OCC(F)(F)F [2,2,2-trifluoroethanol]
[1]
Settings | mass density
283.15 K | 1408.2 kg/m3
293.14 K | 1389.7 kg/m3
293.15 K | 1391.1 kg/m3
303.15 K | 1373.8 kg/m3
303.19 K | 1372.4 kg/m3
313.15 K | 1356.1 kg/m3 and 1354.8 kg/m3
323.15 K | 1338 kg/m3 and 1336.6 kg/m3
333.15 K | 1317.8 kg/m3 and 1319.1 kg/m3

OCC(F)(F)F [2,2,2-trifluoroethanol] + CCn1cc[n+](C)c1.F[B-](F)(F)F
Settings | excess molar enthalpy [kcal/mol] | mass density [kg/m3]
[2], 293.14 K, x2 = 0 | – | 1389.7
[2], 293.14 K, x2 = 0.755 | – | 1299.6
[2], 293.15 K, x2 = 0.099 | – | 1373.3
[2], 293.16 K, x2 = 0.305 | – | 1340.6
[2], 293.17 K, x2 = 0.5164 | – | 1318.4
[2], 303.16 K, x2 = 0.5164 | – | 1308.9
[2], 303.17 K, x2 = 0.099 | – | 1359.1
[2], 303.17 K, x2 = 0.755 | – | 1291.3
[2], 303.18 K, x2 = 0.305 | – | 1329.4
[2], 303.19 K, x2 = 0 | – | 1372.4
[2], 313.15 K, x2 = 0 | – | 1354.8
[2], 313.15 K, x2 = 0.099 | – | 1344.7
[2], 313.16 K, x2 = 0.305 | – | 1318.4
[2], 313.16 K, x2 = 0.755 | – | 1282.9
[2], 313.19 K, x2 = 0.5164 | – | 1299.3
[2], 323.12 K, x2 = 0.099 | – | 1330.5
[2], 323.14 K, x2 = 0.5164 | – | 1290.2
[2], 323.15 K, x2 = 0 | – | 1336.6
[2], 323.15 K, x2 = 0.305 | – | 1307.3
[2], 323.2 K, x2 = 0.755 | – | 1274.7
[2], 333.14 K, x2 = 0.755 | – | 1266.8
[2], 333.15 K, x2 = 0 | – | 1317.8
[2], 333.15 K, x2 = 0.5164 | – | 1281.1
[2], 333.16 K, x2 = 0.305 | – | 1296.4
[2], 333.2 K, x2 = 0.099 | – | 1315.8
[3], 298.15 K, x2 = 0.0555 | 0.0929 | –
[3], 298.15 K, x2 = 0.1114 | 0.15 | –
[3], 298.15 K, x2 = 0.1904 | 0.256 | –
[3], 298.15 K, x2 = 0.3199 | 0.288 | –
[3], 298.15 K, x2 = 0.4137 | 0.273 | –
[3], 298.15 K, x2 = 0.4847 | 0.25 | –
[3], 298.15 K, x2 = 0.5852 | 0.208 | –
[3], 298.15 K, x2 = 0.7016 | 0.155 | –
[3], 298.15 K, x2 = 0.79 | 0.112 | –
[3], 298.15 K, x2 = 0.9039 | 0.0506 | –
[3], 323.15 K, x2 = 0.0555 | 0.0535 | –
[3], 323.15 K, x2 = 0.1114 | 0.0933 | –
[3], 323.15 K, x2 = 0.1904 | 0.172 | –
[3], 323.15 K, x2 = 0.2477 | 0.181 | –
[3], 323.15 K, x2 = 0.3199 | 0.185 | –
[3], 323.15 K, x2 = 0.4137 | 0.171 | –
[3], 323.15 K, x2 = 0.4847 | 0.155 | –
[3], 323.15 K, x2 = 0.5852 | 0.126 | –
[3], 323.15 K, x2 = 0.7016 | 0.0908 | –
[3], 323.15 K, x2 = 0.79 | 0.0632 | –
[3], 323.15 K, x2 = 0.9216 | 0.0233 | –
